The MIC is the lowest concentration that inhibits growth of the organism. Read a low MIC as a more susceptible organism.

The text below walks through data of ChEMBL document CHEMBL1122718, “Benzylamines: synthesis and evaluation of antimycobacterial properties” (1984).

In assay [1] the test system is Mycobacterium tuberculosis. In words: Compounds were evaluated for the minimum inhibitory concentration (MIC) Mycobacterium tuberculosis H 37 Rv (thiosemicarbazone resistant). It is filed as functional.
In assay [2] the test system is Mycobacterium tuberculosis. Briefly: Compounds were evaluated for the minimum inhibitory concentration (MIC) Mycobacterium tuberculosis H 37 Rv (INH resistant). It is filed as functional.

`CCCCNCc1cccc(F)c1.Cl`: the MIC was 32 µg/mL in assay [1] and 8 µg/mL in assay [2].
